Test results reported in ChEMBL document CHEMBL4257454, “Study on the interaction between the 1,4,5,8-naphthalene diimide-spermine conjugate (NDIS) and DNA using a spectroscopic approach and molecular docking” (Medchemcomm, 2017).
The source made the active and inactive calls. No cut-off for these calls is given here.

Tests used:
Clupeidae [1] = experiment: Binding affinity to herring sperm DNA groove assessed as up-field shift at 3 mg by 1H NMR method
Clupeidae [2] = experiment: Binding affinity to herring sperm DNA assessed as quenching constant at 298 K by fluorescence spectroscopic method
Clupeidae [3] = experiment: Binding affinity to herring sperm DNA at 298 K by fluorescence spectroscopic method
Clupeidae [4] = experiment: Binding affinity to herring sperm DNA at 40 uM after 30 mins in presence of Na+ by fluorescence quenching method
Clupeidae [5] = experiment: Inhibition of ethidium bromide binding to herring sperm DNA assessed as Stern-Volmer quenching constant at 303 K after 30 mins by fluorescence spectroscopic assay
Clupeidae [6] = experiment: Binding affinity to herring sperm DNA groove assessed as hyperchromic effect at DNA to compound molar ratio of >5.5 after 30 mins by UV-visible spectrophotometric method
Clupeidae [7] = experiment: Inhibition of ethidium bromide binding to herring sperm DNA assessed as DNA insertion at 3 mg by 1H NMR method
Clupeidae [8] = experiment: Inhibition of ethidium bromide binding to herring sperm DNA at 310 K after 30 mins by fluorescence spectroscopic assay
Clupeidae [9] = experiment: Inhibition of ethidium bromide binding to herring sperm DNA assessed as Stern-Volmer quenching constant at 310 K after 30 mins by fluorescence spectroscopic assay
Clupeidae [10] = experiment: Binding affinity to herring sperm DNA assessed as Stern-Volmer quenching constant at 303 K by fluorescence spectroscopic method
Clupeidae [11] = experiment: Inhibition of ethidium bromide binding to herring sperm DNA at 298 K after 30 mins by fluorescence spectroscopic assay
Clupeidae [12] = experiment: Binding affinity to herring sperm DNA after 30 mins by UV-visible spectrophotometric method
Clupeidae [13] = experiment: Binding affinity to herring sperm DNA assessed as iodide quenching at 20 uM after 30 mins by fluorescence method (reference value: 27 L/mol)
Clupeidae [14] = experiment: Inhibition of ethidium bromide binding to herring sperm DNA assessed as Stern-Volmer quenching constant at 298 K after 30 mins by fluorescence spectroscopic assay
Clupeidae [15] = experiment: Binding affinity to herring sperm DNA assessed as quenching constant at 303 K by fluorescence spectroscopic method
Clupeidae [16] = experiment: Binding affinity to herring sperm DNA at 310 K by fluorescence spectroscopic method
Clupeidae [17] = experiment: Binding affinity to herring sperm DNA assessed as hypochromism at 80 uM after 30 mins by UV-visible spectrophotometric method
Clupeidae [18] = experiment: Binding affinity to herring sperm DNA assessed as blue shift at 16 to 48 uM up to 30 mins by circular dichroism method
Clupeidae [19] = experiment: Binding affinity to herring sperm DNA assessed as Stern-Volmer quenching constant at 310 K by fluorescence spectroscopic method
Clupeidae [20] = experiment: Binding affinity to herring sperm DNA assessed as negative peak at 16 to 48 uM up to 30 mins by circular dichroism method (reference value: 210 nanometer)
Clupeidae [21] = experiment: Inhibition of ethidium bromide binding to herring sperm DNA assessed as fluorescence quenching of DNA-ethidium bromide complex up to 120 uM after 30 mins by fluorescence spectroscopic assay relative to control; design: scale not given: the % may be the effect or the level left
Clupeidae [22] = experiment: Binding affinity to herring sperm DNA assessed as test compound fluorescence quenching by fluorescence spectroscopic method relative to control
Clupeidae [23] = experiment: Inhibition of ethidium bromide binding to herring sperm DNA assessed as quenching constant at 310 K after 30 mins by fluorescence spectroscopic assay
Clupeidae [24] = experiment: Binding affinity to herring sperm DNA assessed as quenching constant at 310 K by fluorescence spectroscopic method
Clupeidae [25] = experiment: Binding affinity to herring sperm DNA assessed as positive peak at 16 to 48 uM up to 30 mins by circular dichroism method (reference value: 280 nanometer)
Clupeidae [26] = experiment: Inhibition of ethidium bromide binding to herring sperm DNA assessed as quenching constant at 303 K after 30 mins by fluorescence spectroscopic assay
Clupeidae [27] = experiment: Inhibition of ethidium bromide binding to herring sperm DNA assessed as quenching constant at 298 K after 30 mins by fluorescence spectroscopic assay
Clupeidae [28] = experiment: Binding affinity to herring sperm DNA groove assessed as fluorescence quenching at DNA to compound molar ratio of >5.5 by fluorescence spectroscopic method
Clupeidae [29] = experiment: Binding affinity to herring sperm DNA at 303 K by fluorescence spectroscopic method
Clupeidae [30] = experiment: Inhibition of ethidium bromide binding to herring sperm DNA at 303 K after 30 mins by fluorescence spectroscopic assay
Clupeidae [31] = experiment: Binding affinity to herring sperm DNA assessed as Stern-Volmer quenching constant at 298 K by fluorescence spectroscopic method
Clupeidae [32] = experiment: Binding affinity to herring sperm DNA assessed as red shift at 80 uM after 30 mins by UV-visible spectrophotometric method

NCCCNCCCCNCCCN1C(=O)c2ccc3c4c(ccc(c24)C1=O)C(=O)N(CCCNCCCCNCCCN)C3=O
Activity (Clupeidae [1]): Active
Kq (Clupeidae [2]): 5.32 ×10¹¹ L/mol
Kb (Clupeidae [3]): 1.38 ×10⁴ L/mol
Activity (Clupeidae [4]): Active
KSV (Clupeidae [5]): 1.28 ×10⁵ L/mol
Activity (Clupeidae [6]): Active
Activity (Clupeidae [7]): Active
Kb (Clupeidae [8]): 1.21 ×10⁵ L/mol
KSV (Clupeidae [9]): 1.45 ×10⁵ L/mol
KSV (Clupeidae [10]): 5.63 ×10³ L/mol
Kb (Clupeidae [11]): 1.23 ×10⁵ L/mol
Kapp (Clupeidae [12]): 1.55 ×10³ L/mol
KSV (Clupeidae [13]): 18.1 L/mol
KSV (Clupeidae [14]): 1.18 ×10⁵ L/mol
Kq (Clupeidae [15]): 5.63 ×10¹¹ L/mol
Kb (Clupeidae [16]): 1.7 ×10⁴ L/mol
Activity (Clupeidae [17]): 60.7%
Activity (Clupeidae [18]): Active
KSV (Clupeidae [19]): 4.63 ×10³ L/mol
Activity (Clupeidae [20]): 245 nm
Activity (Clupeidae [21]): 87.8%
Activity (Clupeidae [22]): 91%
Kq (Clupeidae [23]): 1.45 ×10¹³ L/mol
Kq (Clupeidae [24]): 4.63 ×10¹¹ L/mol
Activity (Clupeidae [25]): 280 nm
Kq (Clupeidae [26]): 1.28 ×10¹³ L/mol
Kq (Clupeidae [27]): 1.18 ×10¹³ L/mol
Activity (Clupeidae [28]): Active
Kb (Clupeidae [29]): 1.25 ×10⁴ L/mol
Kb (Clupeidae [30]): 1.25 ×10⁵ L/mol
KSV (Clupeidae [31]): 5.32 ×10³ L/mol
Activity (Clupeidae [32]): Active

NCCCCNCCCN
Kapp (Clupeidae [12]): 1.47 ×10⁵ L/mol

NCCCNCCCCNCCCN1C(=O)c2cccc3cccc(c23)C1=O
Activity (Clupeidae [17]): 40%
Activity (Clupeidae [21]): 77.2%
Activity (Clupeidae [22]): 68.5%
